Twelve compounds from patent US10633419B2, “Immunomodulators” (BRISTOL-MYERS SQUIBB COMPANY, priority 2014, dated 2020) can be followed below.

pIC50: −log10 of the molar value. Starred links: 1 amine or outer side, 2 acyl side, 3 side chain; linkers in the order of their positions; H or OH if unused. Positions of bridges follow the written chain, without caps; N, C: chain ends. Non-standard residues stand in square brackets, D forms with d. Residues, ends and D or L forms follow the SMILES beside them. *: point of attachment. εLys(α-Octadecanedioyl) = O=C(O)CCCCCCCCCCCCCCCCC(=O)N[C@@H](CCCCN*)C(=O)O; X13 = O=C(O)CCCCCCCCCCCCCCC(=O)N[C@@H](CCC(=O)NCCCOCCOCCOCCCN*)C(=O)O; X18 = O=C(O)CCCCCCCCCCCCCCC(=O)N[C@@H](CC(=O)NCCCOCCOCCOCCCN*)C(=O)O; Ala(1-CH2COOH-inden-3-yl) = N[C@@H](CC1=CC(CC(=O)O)c2ccccc21)C(=O)O; Trp(1-CH2COOH) = N[C@@H](Cc1cn(CC(=O)O)c2ccccc12)C(=O)O; X14 = O=C(O)CCCCCCCCCCNC(=O)CCC(=O)NCCCOCCOCCOCCCN*; X9 = O=C(O)CCCCCCCCCCCCCCCCC(=O)N[C@@H](CCN*)C(=O)O; Phe(4-F) = N[C@@H](Cc1ccc(F)cc1)C(=O)O; d(cisHyp) = O=C(O)[C@H]1C[C@@H](O)CN1; βAsp = O=C(O)[C@H](CC(=O)[*:2])N[*:1]; NH(CH2)12COOH = O=C(O)CCCCCCCCCCCCN*; Palmitoyl = CCCCCCCCCCCCCCCC(=O)*; Hyp = O=C(O)[C@@H]1C[C@@H](O)CN1; dHyp = O=C(O)[C@H]1C[C@H](O)CN1; NMeNle = CCCC[C@H](NC)C(=O)O; Pip = O=C(O)[C@@H]1CCCCN1; dDab = NCC[C@@H](N)C(=O)O; NMeA = CN[C@@H](C)C(=O)O; Pra = C#CC[C@H](N)C(=O)O; Aun = NCCCCCCCCCCC(=O)O; Dab = NCC[C@H](N)C(=O)O; Dap = NC[C@H](N)C(=O)O; GABA = NCCCC(=O)O

One assay deals with T1, PD-L1 (Homo sapiens, UniProt Q9NZQ7).
T1 construct: hPDL1(19-239)-TVMV-His; made in house; host or cells: HEK293T
T1 sequence (Q9NZQ7 with tags, fused parts or gaps): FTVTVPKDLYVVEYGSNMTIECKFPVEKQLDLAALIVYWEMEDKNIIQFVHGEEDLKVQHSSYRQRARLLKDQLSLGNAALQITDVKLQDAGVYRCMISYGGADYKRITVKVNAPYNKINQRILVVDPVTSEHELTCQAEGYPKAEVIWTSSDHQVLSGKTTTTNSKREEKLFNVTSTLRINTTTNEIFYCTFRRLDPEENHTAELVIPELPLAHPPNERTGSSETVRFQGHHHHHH
Description: PD-1/PD-L1 Homogenous Time-Resolved Fluorescence (HTRF) binding assay (PD-1-Ig/PD-L1-His). Particulars: inhibition of PD-1-Ig binding to PD-L1-TVMV-His; value given as number; read-out: HTRF IC50. The gist of the method:
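HTRF competition in dPBS with 0.1% BSA and 0.05% Tween-20: 20 nM PD-1-Ig added after 15 min compound pre-incubation with 10 nM PD-L1-His, then another 15 min. Signal (665/620 nm) after 30 min with APC anti-His (20 nM) and Eu anti-Ig (1 nM).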
In the case of `CCCC[C@H]1C(=O)N(C)[C@@H](CCCC)C(=O)N[C@@H](CC(C)C)C(=O)N[C@H](C(=O)NCC(=O)NCC(=O)NCC(=O)NCCCCCCCCCCC(=O)O)CSCC(=O)N[C@@H](Cc2ccc(O)cc2)C(=O)N(C)[C@@H](C)C(=O)N[C@@H](CC(N)=O)C(=O)N2CCC[C@H]2C(=O)N[C@@H](CN)C(=O)N[C@@H](CCC(N)=O)C(=O)N2C[C@H](O)C[C@H]2C(=O)N[C@@H](Cc2c[nH]c3ccccc23)C(=O)N[C@@H](CCN)C(=O)N[C@@H](Cc2cn(CC(=O)O)c3ccccc23)C(=O)N1C` [Example 11094] ({CH2CO}-Y[NMeA]NP[Dap]Q[Hyp]W[Dab][Trp(1-CH2COOH)][NMeNle][NMeNle]LCGGG[Aun]-OH; thioether N-14), the pIC50 was 7.73.
`CCCC[C@H]1C(=O)N(C)[C@@H](CCCC)C(=O)N[C@@H](CCC(=O)O)C(=O)N[C@H](C(=O)NCCCOCCOCCOCCCNC(=O)CCC(=O)NCCCCCCCCCCC(=O)O)CSCC(=O)N[C@@H](Cc2ccc(O)cc2)C(=O)N(C)[C@@H](C)C(=O)N[C@@H](CC(N)=O)C(=O)N2CCC[C@H]2C(=O)N[C@@H](Cc2cnc[nH]2)C(=O)N[C@@H](CCCCN)C(=O)N2C[C@H](O)C[C@H]2C(=O)N[C@@H](Cc2c[nH]c3ccccc23)C(=O)N[C@@H](CO)C(=O)N[C@@H](Cc2cn(CC(=O)O)c3ccccc23)C(=O)N1C` [Example 11080] ({CH2CO}-Y[NMeA]NPHK[Hyp]WS[Trp(1-CH2COOH)][NMeNle][NMeNle]EC-X14; thioether N-14): the pIC50 was 7.90.
Still for that read-out and setting: under `CCCC[C@H]1C(=O)N(C)[C@@H](CCCC)C(=O)N[C@@H](CC(C)C)C(=O)N[C@H](C(=O)NCC(=O)N[C@@H](CC(=O)NCCCC(=O)NCC[C@H](NC(=O)CCCCCCCCCCCCCCCCC(=O)O)C(=O)O)C(=O)O)CSCC(=O)N[C@@H](Cc2ccc(O)cc2)C(=O)N2CCCC[C@H]2C(=O)N[C@@H](CC(N)=O)C(=O)N2CCC[C@H]2C(=O)N[C@@H](CN)C(=O)N[C@@H](CC(C)C)C(=O)N2C[C@H](O)C[C@H]2C(=O)N[C@@H](Cc2c[nH]c3ccccc23)C(=O)N[C@@H](CCN)C(=O)N[C@@H](Cc2cn(CC(=O)O)c3ccccc23)C(=O)N1C` [Example 13162] ({CH2CO}-Y[Pip]NP[Dap]L[Hyp]W[Dab][Trp(1-CH2COOH)][NMeNle][NMeNle]LCG[βAsp][GABA]-X9; thioether N-14) stands 8.42.

Still in this assay, the particulars now being: inhibition of PD-1-Ig binding to PD-L1-TVMV-His; value given as range class; read-out: HTRF IC50.
Turning to `CCCC[C@H]1C(=O)N(C)[C@@H](CCCC)C(=O)N[C@@H](CC(C)C)C(=O)N[C@H](C(=O)NCC(=O)N[C@@H](CCC(=O)NCCCOCCOCCOCCCNC(=O)CC[C@H](NC(=O)CCCCCCCCCCCCCCC(=O)O)C(=O)O)C(=O)O)CSCC(=O)N[C@@H](Cc2ccc(O)cc2)C(=O)N(C)[C@@H](C)C(=O)N[C@@H](CC(N)=O)C(=O)N2CCC[C@H]2C(=O)N[C@@H](CN)C(=O)N[C@@H](CC(C)C)C(=O)N2C[C@H](O)C[C@@H]2C(=O)N[C@@H](Cc2c[nH]c3ccccc23)C(=O)N[C@@H](CCN)C(=O)N[C@@H](Cc2cn(CC(=O)O)c3ccccc23)C(=O)N1C` [Example 11159] ({CH2CO}-Y[NMeA]NP[Dap]L[d(cisHyp)]W[Dab][Trp(1-CH2COOH)][NMeNle][NMeNle]LCGE(X13)-OH; thioether N-14), the pIC50 is 7.00 to 8.00.
On to `CCCC[C@H]1C(=O)N(C)[C@@H](CCCC)C(=O)N[C@@H](CC(C)C)C(=O)N[C@@H](C(=O)NCC(=O)N[C@@H](CC(=O)O)C(=O)N[C@@H](CCC(=O)NCCCOCCOCCOCCCNC(=O)C[C@H](NC(=O)CCCCCCCCCCCCCCC(=O)O)C(=O)O)C(=O)O)CSCC(=O)N[C@@H](Cc2ccc(O)cc2)C(=O)N(C)[C@@H](C)C(=O)N[C@@H](CC(N)=O)C(=O)N2CCC[C@@H]2C(=O)N[C@@H](CN)C(=O)N[C@@H](CC(C)C)C(=O)N2C[C@@H](O)C[C@@H]2C(=O)N[C@@H](Cc2c[nH]c3ccccc23)C(=O)N[C@H](CCN)C(=O)N[C@@H](Cc2cn(CC(=O)O)c3ccccc23)C(=O)N1C` [Example 11241] ({CH2CO}-Y[NMeA]N[dP][Dap]L[dHyp]W[dDab][Trp(1-CH2COOH)][NMeNle][NMeNle]L[dC]GDE(X18)-OH; thioether N-14), for which the pIC50 is 7.00 to 8.00.
As to `CCCC[C@H]1C(=O)N(C)[C@@H](CCCC)C(=O)N[C@@H](CC(C)C)C(=O)N[C@H](C(=O)NCC(=O)N[C@@H](CC(=O)NCCCC[C@H](NC(=O)CCCCCCCCCCCCCCCCC(=O)O)C(=O)O)C(=O)O)CSCC(=O)N[C@@H](Cc2ccc(O)cc2)C(=O)N(C)[C@@H](C)C(=O)N[C@@H](CC(N)=O)C(=O)N2CCC[C@H]2C(=O)N[C@@H](CN)C(=O)N[C@@H](CC(C)C)C(=O)N2C[C@H](O)C[C@H]2C(=O)N[C@@H](Cc2c[nH]c3ccccc23)C(=O)N[C@@H](CCN)C(=O)N[C@@H](Cc2cn(CC(=O)O)c3ccccc23)C(=O)N1C` [Example 11176] ({CH2CO}-Y[NMeA]NP[Dap]L[Hyp]W[Dab][Trp(1-CH2COOH)][NMeNle][NMeNle]LCGD(εLys(α-Octadecanedioyl))-OH; thioether N-14), the pIC50 is 7.00 to 8.00.
For `CCCC[C@H]1C(=O)N(C)[C@@H](CCCC)C(=O)N[C@@H](CC(C)C)C(=O)N[C@H](C(=O)NCC(=O)NCC(=O)NCCCCCCCCCCC(=O)O)CSCC(=O)N[C@@H](Cc2ccc(O)cc2)C(=O)N(C)[C@@H](C)C(=O)N[C@@H](CC(N)=O)C(=O)N2CCC[C@H]2C(=O)N[C@@H](Cc2cnc[nH]2)C(=O)N[C@@H](CCC(=O)O)C(=O)N2C[C@H](O)C[C@H]2C(=O)N[C@@H](Cc2c[nH]c3ccccc23)C(=O)N[C@@H](CCN)C(=O)N[C@@H](CC2=CC(CC(=O)O)c3ccccc32)C(=O)N1C` (stereo partly drawn) [Example 11078] ({CH2CO}-Y[NMeA]NPHE[Hyp]W[Dab][Ala(1-CH2COOH-inden-3-yl)][NMeNle][NMeNle]LCGG[Aun]-OH; thioether N-14), the pIC50 is 8.00 to 9.52.
Still for that read-out and setting: under `CCCC[C@H]1C(=O)N(C)[C@@H](CCCC)C(=O)N[C@@H](CC(C)C)C(=O)N[C@H](C(=O)NCC(=O)N[C@@H](CC(=O)O)C(=O)N[C@@H](CC(=O)O)C(=O)NCCCCCCCCCCCCC(=O)O)CSCC(=O)N[C@@H](Cc2ccc(O)cc2)C(=O)N(C)[C@@H](C)C(=O)N[C@@H](CC(N)=O)C(=O)N2CCC[C@H]2C(=O)N[C@@H](CN)C(=O)N[C@@H](CC(C)C)C(=O)N2C[C@H](O)C[C@H]2C(=O)N[C@@H](Cc2c[nH]c3ccccc23)C(=O)N[C@@H](CCN)C(=O)N[C@@H](Cc2cn(CC(=O)O)c3ccccc23)C(=O)N1C` [Example 11217] ({CH2CO}-Y[NMeA]NP[Dap]L[Hyp]W[Dab][Trp(1-CH2COOH)][NMeNle][NMeNle]LCGDD-{NH(CH2)12COOH}; thioether N-14) stands 7.00 to 8.00; under `CCCC[C@H]1C(=O)N(C)[C@@H](CCCC)C(=O)N[C@@H](CC(C)C)C(=O)N[C@H](C(=O)NCC(=O)N[C@@H](CC(=O)NCC[C@H](NC(=O)CCCCCCCCCCCCCCCCC(=O)O)C(=O)O)C(=O)O)CSCC(=O)N[C@@H](Cc2ccc(F)cc2)C(=O)N2CCCC[C@H]2C(=O)N[C@@H](CC(=O)O)C(=O)N2CCC[C@H]2C(=O)N[C@@H](CN)C(=O)N[C@@H](CC(C)C)C(=O)N2C[C@H](O)C[C@H]2C(=O)N[C@@H](Cc2c[nH]c3ccccc23)C(=O)N[C@@H](CCN)C(=O)N[C@@H](Cc2cn(CC(=O)O)c3ccccc23)C(=O)N1C` [Example 13147] ({CH2CO}-[Phe(4-F)][Pip]DP[Dap]L[Hyp]W[Dab][Trp(1-CH2COOH)][NMeNle][NMeNle]LCGD(X9)-OH; thioether N-14), 5.80 to 7.00; under `CCCC[C@H]1C(=O)N(C)[C@@H](CCCC)C(=O)N[C@@H](CC(C)C)C(=O)N[C@H](C(=O)NCC(=O)N[C@@H](CCC(=O)NCC[C@H](NC(=O)CCCCCCCCCCCCCCCCC(=O)O)C(=O)O)C(=O)O)CSCC(=O)N[C@@H](Cc2ccc(O)cc2)C(=O)N2CCCC[C@H]2C(=O)N[C@@H](CC(N)=O)C(=O)N2CCC[C@H]2C(=O)N[C@@H](CN)C(=O)N[C@@H](CC(C)C)C(=O)N2C[C@H](O)C[C@H]2C(=O)N[C@@H](Cc2c[nH]c3ccccc23)C(=O)N[C@@H](CCN)C(=O)N[C@@H](Cc2cn(CC(=O)O)c3ccccc23)C(=O)N1C` [Example 13143] ({CH2CO}-Y[Pip]NP[Dap]L[Hyp]W[Dab][Trp(1-CH2COOH)][NMeNle][NMeNle]LCGE(X9)-OH; thioether N-14), 5.80 to 7.00.
The same measure, in the same setting: with `C#CC[C@H](NC(=O)[C@@H]1CSCC(=O)N[C@@H](Cc2ccc(O)cc2)C(=O)N(C)[C@@H](C)C(=O)N[C@@H](CC(N)=O)C(=O)N2CCC[C@H]2C(=O)N[C@@H](CN)C(=O)N[C@@H](CC(C)C)C(=O)N2C[C@H](O)C[C@H]2C(=O)N[C@@H](Cc2c[nH]c3ccccc23)C(=O)N[C@@H](CCN)C(=O)N[C@@H](Cc2cn(CC(=O)O)c3ccccc23)C(=O)N(C)[C@@H](CCCC)C(=O)N(C)[C@@H](CCCC)C(=O)N[C@@H](CC(=O)O)C(=O)N1)C(=O)O` [INT130AH] ({CH2CO}-Y[NMeA]NP[Dap]L[Hyp]W[Dab][Trp(1-CH2COOH)][NMeNle][NMeNle]DC[Pra]-OH; thioether N-14) the figure was 8.00 to 9.52; with `CCCCCCCCCCCCCCCC(=O)NCCCC[C@H](NC(=O)[C@H](CC(=O)O)NC(=O)CNC(=O)[C@@H]1CSCC(=O)N[C@@H](Cc2ccc(O)cc2)C(=O)N(C)[C@@H](C)C(=O)N[C@@H](CC(N)=O)C(=O)N2CCC[C@H]2C(=O)N[C@@H](CCN)C(=O)N[C@@H](CC(C)C)C(=O)N2C[C@H](O)C[C@H]2C(=O)N[C@@H](Cc2c[nH]c3ccccc23)C(=O)N[C@@H](CO)C(=O)N[C@@H](Cc2c[nH]c3ccccc23)C(=O)N(C)[C@@H](CCCC)C(=O)N(C)[C@@H](CCCC)C(=O)N[C@@H](CCCNC(=N)N)C(=O)N1)C(N)=O` [Example 11027] ({CH2CO}-Y[NMeA]NP[Dab]L[Hyp]WSW[NMeNle][NMeNle]RCGDK(Palmitoyl)-NH2; thioether N-14), 5.80 to 7.00.
